Data: paper PMC5824344 (ACS Chemical Biology, 2017)

Experiments:
[1] = test system: DENV2 strain 16681 in primary human MDMΦ; set-up: method as in PMID 23070155; details: MDMΦ cells, same system; read-out: IC50 for DENV inhibition; cited from earlier work
[2] = cited from earlier work
[3] = test system: GluI and GluII in Raji (B lymphocyte) cells; assay: Free oligosaccharide (FOS) assay in Raji cells; type: cell-based, human; details: 48 h, 50 µm
Procedure: 5 Cell and Virus Culture and Assays
5.1 Culture of Cell Lines
The human hepatoma cell line Huh7.5 (Apath, LLC) was cultured in Dulbecco’s modiﬁed Eagle medium (DMEM) with Glutamax (Gibco) supplemented with 100 µg mL−1 strepto-mycin (Sigma), 100 U mL−1 penicillin (Sigma), 100 µm MEM non-essential amino acids (Gibco) and 10% (volume/volume, v/v) heat-inactivated (56 ◦C, 30 min) fetal calf serum (FCS, Seralab). The human monocytic cell line HL60 (ATCC), human T lymphocyte cell line Jurkat (ATCC), and human B lymphocyte cell line Raji (ATCC) were each maintained in RPMI 1640 media with Glutamax (Gibco) supplemented with 100 µg mL−1 streptomycin, 100 U mL−1 penicillin and 10% (v/v) FCS. […]
Cell viability was measured using the CellTiter 96 R© AQueous One Solution Cell Prolifera-tion MTA (3-(4,5-dimethylthiazol-2-yl)-5-(3-carboxymethoxyphenyl)-2-(4-sulfophenyl)-2H - […]
After a further one to two hour incubation, the absorbance at 490 nm was measured on a Molecular Devices SpectraMax M5 microplate reader. […]
Absorbances were averaged across replicates, and corrected for background by subtracting the value for media-only wells. Each drug treatment was then evaluated as a percentage of untreated cells. […]
FOS analysis was carried out as described previously. […] Before purifying the FOS, each sample was analyzed for protein content using the modiﬁed Bradford assay. […]

Compound	IC50 [1] [µM]	plasma half-life [2] [h]	tissue in which compound is found in the highest amounts ([2]; renally excreted)	glucosylated free oligosaccharides (FOS) observed after treatment [3]	glucosylated free oligosaccharides (FOS) observed after treatment ([3]; listed as ToP-DNJ 4)
CCCCN1CC(O)C(O)C(O)C1CO [Compound 2, N-butyl-D-1-deoxynojirimycin, reference compound]	6	5	highest amounts in the kidneys and bladder		
Cc1c(C)c2c(c(C)c1OCCCCCN1CC(O)C(O)C(O)C1CO)CCC(C)(CCCC(C)CCCC(C)CCCC(C)C)O2 (centres unmarked) [Compound 4, 5′-tocopheroxypentyl-DNJ]				nor Raji	no glucosylated FOS were detected
